# Literature values in patent US20090048319A1, “Method of Using a Micronutrient as Safener for a Triazole for Controlling Harmful Fungi” (priority 2006, published 2009).
# Tested on: wheat
# Conditions: in vivo
structure (smiles),measurement,value
"CC1(C)CC/C(=C\c2ccc(Cl)cc2)C1(O)Cn1cncn1 (stereo not shown) [triticonazole, (5E)-5-[(4-chlorophenyl)methylene]-2,2-dimethyl-1-(1H-1,2,4-triazol-1-ylmethyl)cyclopentanol]",negative effect on plant growth,strongly reduced longitudinal growth
